Data published in US10092570B2 (Incyte Corporation, priority 2011, dated 2018).

Each compound was assayed against PI3Kδ (p110δ/p85α) (Homo sapiens (Human), UniProt O00329) (assay: Example A3: PI3Kδ scintillation proximity assay). Conditions: scintillation proximity assay, 20 μM ATP, 4 nM PI3Kδ; read-out: PI3Kδ SPA IC50.
Type: biochemical
Procedure: [γ-^33P]ATP (10 mCi/mL) was purchased from Perkin-Elmer (Waltham, Mass.). […] PI3Kδ (p110δ/p85α) was purchased from Millipore (Bedford, Mass.). ATP, MgCl2, DTT, EDTA, MOPS and CHAPS were purchased from Sigma-Aldrich (St. Louis, Mo.). Wheat Germ Agglutinin (WGA) YSi SPA Scintillation Beads was purchased from GE healthcare life sciences (Piscataway, N.J.).
The kinase reaction was conducted in polystyrene 384-well matrix white plate from Thermo Fisher Scientific in a final volume of 25 μL. Inhibitors were first diluted serially in DMSO and added to the plate wells before the addition of other reaction components. The final concentration of DMSO in the assay was 0.5%. The PI3K assays were carried out at room temperature in 20 mM MOPS, pH 6.7, 10 mM MgCl2, 5 mM DTT and CHAPS 0.03%. Reactions were initiated by the addition of ATP, the final reaction mixture consisted of 20 μM PIP2, 20 μM ATP, 0.2 μCi [γ-^33P] ATP, 4 nM PI3Kδ. […] 25 mM EDTA, 400 μM ATP. The final concentration of SPA beads was 1.0 mg/mL. After the plate sealing, plates were shaken overnight at room temperature and centrifuged at 1800 rpm for 10 minutes, the radioactivity of the product was determined by scintillation counting on Topcount (Perkin-Elmer). IC50 determination was performed by fitting the curve of percent control activity versus the log of the inhibitor concentration using the GraphPad Prism 3.0 software.

PI3Kδ (p110δ/p85α), sequence (O00329 whole entry): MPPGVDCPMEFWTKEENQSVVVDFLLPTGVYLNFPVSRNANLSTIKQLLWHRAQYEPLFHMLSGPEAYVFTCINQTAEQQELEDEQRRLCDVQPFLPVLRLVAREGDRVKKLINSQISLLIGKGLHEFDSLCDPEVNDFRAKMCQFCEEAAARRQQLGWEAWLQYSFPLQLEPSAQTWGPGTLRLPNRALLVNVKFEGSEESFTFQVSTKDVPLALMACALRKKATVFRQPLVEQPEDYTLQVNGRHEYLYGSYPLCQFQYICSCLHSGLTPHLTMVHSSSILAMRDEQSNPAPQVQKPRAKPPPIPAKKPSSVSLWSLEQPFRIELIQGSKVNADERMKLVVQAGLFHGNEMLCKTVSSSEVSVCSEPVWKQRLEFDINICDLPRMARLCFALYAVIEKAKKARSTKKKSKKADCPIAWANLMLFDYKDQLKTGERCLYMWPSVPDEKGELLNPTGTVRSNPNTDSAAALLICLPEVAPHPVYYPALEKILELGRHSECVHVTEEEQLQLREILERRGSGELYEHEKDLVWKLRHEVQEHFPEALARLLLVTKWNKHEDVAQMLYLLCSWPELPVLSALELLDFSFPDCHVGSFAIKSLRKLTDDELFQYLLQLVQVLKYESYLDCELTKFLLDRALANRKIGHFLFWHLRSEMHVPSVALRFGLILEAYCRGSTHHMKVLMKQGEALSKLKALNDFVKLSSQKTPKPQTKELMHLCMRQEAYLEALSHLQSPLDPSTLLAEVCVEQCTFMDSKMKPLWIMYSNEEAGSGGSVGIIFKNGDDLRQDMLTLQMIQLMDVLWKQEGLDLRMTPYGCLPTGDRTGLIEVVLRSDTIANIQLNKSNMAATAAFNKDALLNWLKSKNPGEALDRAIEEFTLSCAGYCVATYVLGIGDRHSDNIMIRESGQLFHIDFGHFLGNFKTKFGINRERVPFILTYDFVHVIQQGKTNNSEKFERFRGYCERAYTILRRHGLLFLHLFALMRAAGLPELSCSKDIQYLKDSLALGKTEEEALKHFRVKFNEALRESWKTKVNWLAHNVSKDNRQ
PI3Kδ (p110δ/p85α), sequence (P27986 whole entry partner): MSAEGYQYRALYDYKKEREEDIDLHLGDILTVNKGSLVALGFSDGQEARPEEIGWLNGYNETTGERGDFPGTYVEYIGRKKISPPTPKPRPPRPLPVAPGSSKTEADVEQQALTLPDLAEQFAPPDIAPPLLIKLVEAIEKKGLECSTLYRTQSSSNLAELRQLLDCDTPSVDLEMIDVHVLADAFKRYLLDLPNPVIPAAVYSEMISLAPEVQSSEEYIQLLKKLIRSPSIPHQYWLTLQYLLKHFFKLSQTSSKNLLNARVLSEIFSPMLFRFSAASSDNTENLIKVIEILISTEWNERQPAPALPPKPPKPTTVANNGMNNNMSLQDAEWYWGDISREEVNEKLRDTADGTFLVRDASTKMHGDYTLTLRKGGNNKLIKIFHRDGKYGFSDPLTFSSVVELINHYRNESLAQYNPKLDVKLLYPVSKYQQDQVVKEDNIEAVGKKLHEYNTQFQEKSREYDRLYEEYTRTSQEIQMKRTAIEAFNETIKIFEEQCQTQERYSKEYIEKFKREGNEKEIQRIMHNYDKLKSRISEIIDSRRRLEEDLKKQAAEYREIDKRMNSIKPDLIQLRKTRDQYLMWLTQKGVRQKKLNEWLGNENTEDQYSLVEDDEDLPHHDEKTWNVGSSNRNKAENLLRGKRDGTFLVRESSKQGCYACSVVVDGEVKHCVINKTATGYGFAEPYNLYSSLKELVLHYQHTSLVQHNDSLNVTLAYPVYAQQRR

SMILES	IC50
CCOc1c(C(C)n2nc(C(F)F)c3c(N)ncnc32)cc(Cl)c(F)c1C1CN(C[C@@H](C)O)C1 (stereo partly drawn) [Example 155, (2R)-1-[3-(3-{1-[4-Amino-3-(difluoromethyl)-1H-pyrazolo[3,4-d]pyrimidin-1-yl]ethyl}-5-chloro-2-ethoxy-6-fluorophenyl)azetidin-1-yl]propan-2-ol]	< 10 nM
COc1c(C(C)n2nc(C)c3c(N)ncnc32)cc(Cl)c(C)c1-c1ccc(C(=O)N(C)C)nc1 (stereo not shown) [Example 11, 5-{3-[1-(4-Amino-3-methyl-1H-pyrazolo[3,4-d]pyrimidin-1-yl)ethyl]-5-chloro-2-methoxy-6-methylphenyl}-N,N-dimethylpyridine-2-carboxamide bis(trifluoroacetate)]	< 10 nM
COc1c(C(C)n2nc(C)c3c(N)ncnc32)cc(Cl)c(C#N)c1C1CN(C(=O)NC(C)(C)C)C1 (single isomer, unassigned) [Example 292, 3-{3-[1-(4-Amino-3-methyl-1H-pyrazolo[3,4-d]pyrimidin-1-yl)ethyl]-5-chloro-6-cyano-2-methoxyphenyl}-N-(tert-butyl)azetidine-1-carboxamide]	< 10 nM
COc1c(C(C)n2nc(C(F)F)c3c(N)ncnc32)cc(C#N)c(C)c1C1CN(CCO)C1 (racemic) [Example 130, 5-{1-[4-Amino-3-(difluoromethyl)-1H-pyrazolo[3,4-d]pyrimidin-1-yl]ethyl}-3-[1-(2-hydroxyethyl)azetidin-3-yl]-4-methoxy-2-methylbenzonitrile]	< 10 nM
CCNC(=O)c1c(C)c(Cl)cc(C(C)n2nc(-c3ccc4cn[nH]c4c3)c3c(N)ncnc32)c1OCC (racemic) [Example 92, 3-{1-[4-Amino-3-(1H-indazol-6-yl)-1H-pyrazolo[3,4-d]pyrimidin-1-yl]ethyl}-5-chloro-2-ethoxy-N-ethyl-6-methylbenzamide]	< 10 nM
COc1c(C(C)n2cc(-c3cn[nH]c3)c(=O)c3c(N)ncnc32)cc(Cl)c(C)c1-c1ccc(C(=O)N(C)C)nc1 (stereo not shown) [Example 359, 5-(3-{1-[4-Amino-5-oxo-6-(1H-pyrazol-4-yl)pyrido[2,3-d]pyrimidin-8(5H)-yl]ethyl}-5-chloro-2-methoxy-6-methylphenyl)-N,N-dimethylpyridine-2-carboxamide]	< 10 nM
CCOc1c(C(C)n2nc(C)c3c(N)ncnc32)cc(Cl)c(F)c1C1CN(CC(F)F)C1 (racemic) [Example 147, 1-(1-{5-Chloro-3-[1-(2,2-difluoroethyl)azetidin-3-yl]-2-ethoxy-4-fluorophenyl}ethyl)-3-methyl-1H-pyrazolo[3,4-d]pyrimidin-4-amine]	< 10 nM
COc1c(C(C)n2nc(C(F)F)c3c(N)ncnc32)cc(C#N)c(C)c1C1CN(CC(C)(C)O)C1 (racemic) [Example 133, 5-{1-[4-Amino-3-(difluoromethyl)-1H-pyrazolo[3,4-d]pyrimidin-1-yl]ethyl}-3-[1-(2-hydroxy-2-methylpropyl)azetidin-3-yl]-4-methoxy-2-methylbenzonitrile]	< 10 nM
CNC(=O)[C@H](C)N1CC(c2c(C)c(C#N)cc(C(C)n3nc(C(F)F)c4c(N)ncnc43)c2OC)C1 (stereo partly drawn) [Example 134, (2S)-2-[3-(3-{1-[4-Amino-3-(difluoromethyl)-1H-pyrazolo[3,4-d]pyrimidin-1-yl]ethyl}-5-cyano-2-methoxy-6-methylphenyl)azetidin-1-yl]-N-methylpropanamide]	< 10 nM
COc1c(C(C)n2ccc(=O)c3c(N)ncnc32)cc(Cl)c(C)c1-c1cccnc1 (racemic) [Example 28, 4-Amino-8-[1-(5-chloro-2-methoxy-4-methyl-3-pyridin-3-ylphenyl)ethyl]pyrido[2,3-d]pyrimidin-5(8H)-one bis(trifluoroacetate)]	< 10 nM
COc1c(C(C)n2nc(C)c3c(N)ncnc32)cc(Cl)c(C#N)c1C1CN(C2CCOC2)C1 (single isomer, unassigned) [Example 276, 4-[1-(4-Amino-3-methyl-1H-pyrazolo[3,4-d]pyrimidin-1-yl)ethyl]-6-chloro-3-methoxy-2-[1-(tetrahydrofuran-3-yl)azetidin-3-yl]benzonitrile]	< 10 nM
CCOc1c(C(C)n2nc(C)c3c(N)ncnc32)cc(Cl)c(C)c1C1CN(C(C)C)C1 (stereo not shown) [Example 94, 1-{1-[5-Chloro-2-ethoxy-3-(1-isopropylazetidin-3-yl)-4-methylphenyl]ethyl}-3-methyl-1H-pyrazolo[3,4-d]pyrimidin-4-amine bis(trifluoroacetate)]	< 10 nM
CNC(=O)[C@@H](C)N1CC(c2c(C)c(C#N)cc(C(C)n3nc(C(F)F)c4c(N)ncnc43)c2OC)C1 (stereo partly drawn) [Example 135, (2R)-2-[3-(3-{1-[4-Amino-3-(difluoromethyl)-1H-pyrazolo[3,4-d]pyrimidin-1-yl]ethyl}-5-cyano-2-methoxy-6-methylphenyl)azetidin-1-yl]-N-methylpropanamide]	< 10 nM
COc1c(C(C)n2nc(C)c3c(N)ncnc32)cc(Cl)c(C)c1-c1cnn(C2CCN(C)CC2)c1 (single isomer, unassigned) [Example 181, 1-(1-(5-Chloro-2-methoxy-4-methyl-3-(1-(1-methylpiperidin-4-yl)-1H-pyrazol-4-yl)phenyl)ethyl)-3-methyl-1H-pyrazolo[3,4-d]pyrimidin-4-amine]	< 10 nM
CNC(=O)N1CC(c2c(C)c(Cl)cc(C(C)n3nc(C)c4c(N)ncnc43)c2OC)C1 (racemic) [Example 10, 3-{3-[1-(4-Amino-3-methyl-1H-pyrazolo[3,4-d]pyrimidin-1-yl)ethyl]-5-chloro-2-methoxy-6-methylphenyl}-N-methylazetidine-1-carboxamide]	< 10 nM
CCOc1c(C(C)n2nc(C)c3c(N)ncnc32)cc(Cl)c(C)c1C1CN(CC(C)(C)O)C1 (single isomer, unassigned) [Example 98, 1-(3-{3-[1-(4-Amino-3-methyl-1H-pyrazolo[3,4-d]pyrimidin-1-yl)ethyl]-5-chloro-2-ethoxy-6-methylphenyl}azetidin-1-yl)-2-methylpropan-2-ol]	< 10 nM
CCOc1c(C(C)n2nc(C)c3c(N)ncnc32)cc(Cl)c(C)c1C1CN(C[C@@H](C)O)C1 (stereo partly drawn) [Example 97, (2R)-1-(3-{3-[1-(4-Amino-3-methyl-1H-pyrazolo[3,4-d]pyrimidin-1-yl)ethyl]-5-chloro-2-ethoxy-6-methylphenyl}azetidin-1-yl)propan-2-ol]	< 10 nM
COc1c(C(C)n2nc(C)c3c(N)ncnc32)cc(Cl)c(C)c1-c1cnn(C(C)C(=O)N(C)C)c1 (stereo not shown) [Example 207, 2-(4-(3-(1-(4-amino-3-methyl-1H-pyrazolo[3,4-d]pyrimidin-1-yl)ethyl)-5-chloro-2-methoxy-6-methylphenyl)-1H-pyrazol-1-yl)-N,N-dimethylpropanamide]	< 10 nM
CCOc1c(C(C)n2nc(C)c3c(N)ncnc32)cc(Cl)c(C)c1C1CN(C(=O)[C@@H](C)O)C1 (stereo partly drawn) [Example 100, (2R)-1-(3-{3-[1-(4-Amino-3-methyl-1H-pyrazolo[3,4-d]pyrimidin-1-yl)ethyl]-5-chloro-2-ethoxy-6-methylphenyl}azetidin-1-yl)-1-oxopropan-2-ol]	< 10 nM
COc1c(C(C)n2nc(-c3cn[nH]c3)c3c(N)ncnc32)cc(Cl)c(C)c1C1CN(CC#N)C1 (stereo not shown) [Example 126, [3-(3-{1-[4-Amino-3-(1H-pyrazol-4-yl)-1H-pyrazolo[3,4-d]pyrimidin-1-yl]ethyl}-5-chloro-2-methoxy-6-methylphenyl)azetidin-1-yl]acetonitrile]	< 10 nM
CCOc1c(C(C)n2ccc(=O)c3c(N)ncnc32)cc(Cl)c(C#N)c1-c1ccc(C(=O)N(C)C)nc1 (racemic) [Example 45, 5-{3-[1-(4-amino-5-oxopyrido[2,3-d]pyrimidin-8(5H)-yl)ethyl]-5-chloro-6-cyano-2-ethoxyphenyl}-N,N-dimethylpyridine-2-carboxamide]	< 10 nM
CCOc1c(C(C)n2ccc(=O)c3c(N)ncnc32)cc(Cl)c(C#N)c1-c1cncc(S(C)(=O)=O)c1 (racemic) [Example 46, 4-(1-(4-amino-5-oxopyrido[2,3-d]pyrimidin-8(5H)-yl)ethyl)-6-chloro-3-ethoxy-2-(5-(methylsulfonyl)pyridin-3-yl)benzonitrile]	< 10 nM
COc1c(C(C)n2nc(C)c3c(N)ncnc32)cc(Cl)c(F)c1C1CN(CCO)C1 (racemic) [Example 71, 2-(3-{3-[1-(4-Amino-3-methyl-1H-pyrazolo[3,4-d]pyrimidin-1-yl)ethyl]-5-chloro-6-fluoro-2-methoxyphenyl}azetidin-1-yl)ethanol]	< 10 nM
CCOc1c(C(C)n2nc(C)c3c(N)ncnc32)cc(Cl)c(F)c1C1CN(C[C@H](C)O)C1 (stereo partly drawn) [Example 143, (2S)-1-(3-{3-[1-(4-Amino-3-methyl-1H-pyrazolo[3,4-d]pyrimidin-1-yl)ethyl]-5-chloro-2-ethoxy-6-fluorophenyl}azetidin-1-yl)propan-2-ol]	< 10 nM
CCOc1c(C(C)n2nc(C#C[C@@H](C)O)c3c(N)ncnc32)cc(Cl)c(C)c1-c1ccc(C(=O)N(C)C)nc1 (stereo partly drawn) [Example 79, 5-[3-(1-{4-Amino-3-[(3R)-3-hydroxybut-1-yn-1-yl]-1H-pyrazolo[3,4-d]pyrimidin-1-yl}ethyl)-5-chloro-2-ethoxy-6-methylphenyl]-N,N-dimethylpyridine-2-carboxamide bis(trifluoroacetate)]	< 10 nM
